Measured values published in patent US8242280B2, “Fused ring heterocycle kinase modulators” (SGX Pharmaceuticals, Inc., priority 2007, dated 2012).

Columns and labels:
[1] = target: T1, unphosphorylated T315I Abl kinase domain (Mus musculus, UniProt P00520, T315I); experiment: c-Abl T315I 0P bioassay (pyruvate kinase/lactate dehydrogenase coupled enzyme assay); type: biochemical; settings: zero phosphorylation state (0P), 10 μM ATP, read-out: AbI T315I 0P IC50
T1 construct: purified and unphosphorylated T315I Abl kinase domain; made in house; host or cells: E. coli BL21(DE3) (Codon+RIL or pSA0145 strain)
T1 sequence (P00520 242-493 T315I limits assumed): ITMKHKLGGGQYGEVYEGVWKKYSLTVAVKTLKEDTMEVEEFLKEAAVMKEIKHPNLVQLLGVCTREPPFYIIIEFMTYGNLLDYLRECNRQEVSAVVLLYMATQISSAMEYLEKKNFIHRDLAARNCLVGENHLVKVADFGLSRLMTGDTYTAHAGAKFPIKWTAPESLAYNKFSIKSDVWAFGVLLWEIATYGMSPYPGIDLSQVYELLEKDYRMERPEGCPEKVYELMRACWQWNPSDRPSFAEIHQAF
Excerpt: Although the first of these examples uses the kinase domain of a mutant form of Abl T315I (“Abl T315I KD”), the kinase assays may use various forms of mutant and wild type enzymes, including, for example, the entire protein, the kinase domain, or a portion thereof (e.g. Abl Y393F). The kinases used in the assays may also be of varying phosphorylation states. In the c-Abl example, a mutant kinase at a zero phosphorylation state was used. c-Abl Pyruvate Kinase/Lactate Dehydrogenase Coupled Enzyme Assay
In the c-Abl Pyruvate Kinase (PK)/Lactate Dehydrogenase (LDH) Coupled Assay the protein kinase dependant phosphorylation of a substrate peptide was coupled to the oxidation of NADH. The oxidation of NADH to NAD+ was detected by monitoring a decrease in absorbance at 340 nm.
Materials: Abl substrate peptide=EAIYAAPFAKKK (SEQ ID NO: 1)—OH (Biopeptide, San Diego, Calif.); pNADH (Sigma Cat#N-8129, FW=709.4); 2M MgC12; 1M HEPES buffer, pH 7.5; Phosphoenolpyruvate (PEP) (Sigma Cat#P-7002, FW=234); Lactate dehydrogenase (LDH) (Worthington Biochemical Cat#2756); Pyruvate Kinase (PK) (Sigma Cat#P-9136); ATP (Sigma Cat#A-3377, FW=551); Greiner 384-well UV star plate; and purified and unphosphorylated T315I Abl kinase domain.
Stock Solutions: 10 mM NADH (7.09 mg/ml in miliQH2O) made fresh daily; 10 mM Abl substrate peptide (13.4 mg/ml in miliQH2O) stored at −20° C.; 100 mM HEPES buffer, pH 7.5 (5 ml 1M stock+45 ml miliQH2O); 100 mM MgCl2 (5 ml 2M MgCl2+95 ml dH2O); 100 MM PEP (23.4 mg/ml in dH2O) stored at −20° C.; 10 mM ATP (5.51 mg/ml in dH2O) stored at −20° C. (diluted 50 μl into total of 10 ml miliQH2O daily=50 μM ATP working stock); 1000 U/ml PK (U/mg varies with lot) flash-frozen under liquid N2 and stored at −80° C.; and 1000 U/ml LDH (U/mg varies with lot) flash-frozen under liquid N2 and stored at −80° C.
Standard Assay Setup for 384-well format (50 μl reaction): 300 μM NADH; 10 mM MgCl2; 2 mM PEP; 45U/ml PK; 60 U/ml LDH; 200 μM Abl substrate peptide; 2.5 μl test compound (in DMSO); 2 μg/ml Abl kinase domain; 10 μM ATP; 100 mM HEPES buffer. Positive controls contained DMSO with no test compound. Negative controls contained 5 μl of 0.5M EDTA (50 mM in the assay). The dephosphorylated form of the c-Abl T315I mutant was used in the biochemical screening assays. The kinase reaction was initiated at time t=0 by the addition of ATP.
Activity was measured by following the time-dependent loss of NADH by absorbance spectroscopy at 340 nm. The linear portion of the resulting progress curve was then analyzed by linear regression to get the activity in absorbance units/time, reported as the slope of that best fit line (moles/unit time can be calculated from using molar extinction coefficient for NADH at 340 nm, 6250M^−1 cm^−1).
Data was evaluated using the equation: Z′=1−[3*(σ++σ−)/|μ+−μ−|](Zhang, et al., 1999 J Biomol Screening 4(2) 67-73), where μ denotes the mean and σ the standard deviation. The subscript designates positive or negative controls. The Z′ score for a robust screening assay should be ≧0.50. The typical threshold=μ+−3*σ+. Any value that falls below the threshold was designated a “hit”.
Dose response was analyzed using the equation: y=min+{(max−min)/(1+10^[compound]−logIC50)}, where y is the observed initial slope, max=the slope in the absence of inhibitor, min=the slope at infinite inhibitor, and the IC50 is the [compound] that corresponds to ½ the total observed amplitude (Amplitude=max−min).
To measure modulation, activation, or inhibition of Abl KD, a test compound was added to the assay at a range of concentrations. Inhibitors may inhibit Abl KD activity at an IC50 in the micromolar range, the nanomolar range, or, for example, in the subnanomolar range.
An open-reading frame for c-Abl was amplified from a Mus musculus (mouse) cDNA library prepared from freshly harvested mouse liver using a commercially available kit (invitrogen) by PCR using the following primers: […]
The c-Abl T315I KD (kinase domain) was purified as follows. […]

[2] = target: Ba/F3 cells, ABL1 WT (Homo sapiens, UniProt P00519); experiment: 96-well XTT cell survival assay, Ba/F3 ABL1 WT; type: cell-based; settings: 72 hours, read-out: ABL1 WT XTT [Ba/F3] IC50
Method: (§1) MV4-11 and THP cells were maintained in Iscove's Modified Dulbecco's Medium supplemented with 10% fetal bovine serum (FBS) and penicillin/streptomycin, Ba/F3 cells were maintained in RPMI 1640 supplemented with 10% FBS, penicillin/streptomycin and 5 ng/ml recombinant mouse IL-3.
(§2) Compounds were tested in the following assays in duplicate.
(§3) 96-well XTT assay: Cells (e.g. BaF3 315I, M351I, or E255K cells) were grown in growth media containing various concentrations of compounds (duplicates) on a 96-well plate for 72 hours at 37° C. The starting cell number was 5000-8000 cells per well and volume was 120 μl. At the end of the 72-hour incubation, 40 μl of XTT labeling mixture (50:1 solution of sodium 3′-[1-(phenylamino-carbonyl)-3,4-tetrazolium]-bis(4-methoxy-6-nitro)benzene sulfonic acid hydrate and Electron-coupling reagent: PMS (N-methyl dibenzopyrazine methyl sulfate) were added to each well of the plate. After an additional 2-6 hours of incubation at 37° C., the absorbance reading at 405 nm with background correction at 650 nm was measured with a spectrophotometer.

[3] = target: Ba/F3 cells, ABL1 T315I (Homo sapiens, UniProt P00519, T315I, cells depend on it); experiment: 96-well XTT cell survival assay, Ba/F3 ABL1 T315I; type: cell-based; settings: 72 hours, read-out: ABL1 T315I XTT [Ba/F3] IC50
Method: as §1, §2, §3

SMILES	IC50 [1] [nM]	GI50 [2] [nM]	GI50 [3] [nM]
COc1ccccc1-c1n[nH]c2ncc(-c3cccc(C(O)c4ncccc4F)c3)cc12 (stereo not shown)	< 50	< 1000	< 1000
CN(C)C(=O)C(O)c1cncc(-c2cnc3[nH]cc(-c4ccc(OC(F)(F)F)cc4)c3c2)c1 (stereo not shown)	50 to 500	> 1000	> 1000
COc1ccccc1-c1c[nH]c2ncc(-c3ccnc(C(O)C(=O)N(C)C)c3)cc12 (stereo not shown)	< 50	> 1000	> 1000
CN(C)C(=O)C(O)c1cncc(-c2cnc3[nH]cc(-c4ccc(CO)cc4)c3c2)c1 (stereo not shown)	< 50	> 1000	> 1000
COc1ccccc1-c1n[nH]c2ncc(-c3cccc(C(O)C(=O)N(C)CCN(C)C)n3)cc12 (stereo not shown)	< 50	> 1000	> 1000
COc1ccccc1-c1n[nH]c2ncc(-c3cccc(C(C)C(=O)N4CCC(O)CC4)c3)cc12 (stereo not shown)	< 50	< 1000	> 1000
CN(C)C(=O)C(O)c1cncc(-c2cnc3[nH]cc(-c4ccnn4C)c3c2)c1 (stereo not shown) [drawing 465]	< 50	> 1000	> 1000
CC[C@H](O)[C@@H](O)c1cccc(-c2cnc3[nH]cc(-c4ccccc4OC)c3c2)c1	< 50	< 1000	< 1000
COc1ccccc1-c1c[nH]c2ncc(-c3cccc(C(C(=O)N(C)C)N4CCNCC4)c3)cc12 (stereo not shown)	< 50	> 1000	> 1000
CN(C)C(=O)C(O)c1cncc(-c2cnc3[nH]cc(-c4cc(C(F)(F)F)nn4C)c3c2)c1 (stereo not shown)	> 500	–	–
CC(=O)Nc1ccc(-c2c[nH]c3ncc(-c4cncc(C(O)C(=O)N(C)C)c4)cc23)cc1 (stereo not shown)	< 50	–	> 1000
CNC(C(=O)N(C)C)c1cccc(-c2cnc3[nH]nc(-c4ccccc4OC)c3c2)c1 (stereo not shown)	< 50	> 1000	> 1000
COc1ccccc1-c1n[nH]c2ncc(-c3cccc(C(O)C(=O)N(C)CC#N)c3)cc12 (stereo not shown)	< 50	< 1000	> 1000
CN(C)C(=O)C(O)c1cncc(-c2cnc3[nH]cc(-c4ccc(Cl)c(Cl)c4)c3c2)c1 (stereo not shown)	< 50	> 1000	> 1000
COc1ccccc1-c1c[nH]c2ncc(-c3cccc(C4NC(=O)NC(C)=C4C(=O)N(C)C)c3)cc12 (stereo not shown)	< 50	> 1000	> 1000
CN(C)C(=O)C(O)c1cncc(-c2cnc3[nH]cc(-c4ccc(N(C)C)cc4)c3c2)c1 (stereo not shown)	50 to 500	> 1000	> 1000
CNC(C(=O)N1CCC(O)C1)c1cccc(-c2cnc3[nH]nc(-c4ccccc4OC)c3c2)c1 (stereo not shown)	< 50	–	–

SMILES	IC50 [1] [nM]	GI50 [2] [nM]	GI50 [3] [nM]
Cc1noc(C)c1-c1c[nH]c2ncc(-c3cncc(C(O)C(=O)N(C)C)c3)cc12 (stereo not shown)	50 to 500	–	–
CN(C)C(=O)C(O)c1cncc(-c2cnc3[nH]cc(-c4ncco4)c3c2)c1 (stereo not shown)	50 to 500	–	–
CN(C)C(=O)C(=O)c1cncc(-c2cnc3[nH]cc(-c4ccnn4C)c3c2)c1	> 500	–	–
COc1ccccc1-c1n[nH]c2ncc(-c3cccc(C(OC)C(=O)N4CC(O)C4)c3)cc12 (stereo not shown)	< 50	–	–
CN(C)C(=O)C(O)c1cncc(-c2cnc3[nH]cc(-c4cccc(Cl)c4)c3c2)c1 (stereo not shown) [drawing 459]	< 50	< 1000	–
COc1ccccc1-c1n[nH]c2ncc(-c3cccc(C(C(=O)N(C)C)N(C)C)c3)cc12 (stereo not shown)	50 to 500	–	–
COc1ccccc1-c1c[nH]c2ncc(-c3cncc(C(O)C(=O)N(C)C)n3)cc12 (stereo not shown)	> 500	–	–
COc1ccccc1-c1n[nH]c2ncc(-c3cccc(C(C(=O)N(C)C(C)C)N(C)C)c3)cc12 (stereo not shown)	50 to 500	–	–
COc1ccccc1-c1c[nH]c2ncc(-c3cccc(C(CC(=O)N(C)C)N4CCS(=O)(=O)CC4)c3)cc12 (stereo not shown)	> 500	–	–
COc1ccccc1-c1n[nH]c2ncc(-c3cccc(C(O)CN)c3)cc12 (stereo not shown)	< 50	–	–
CN(C)C(=O)C(O)c1cncc(-c2cnc3[nH]cc(-c4cnn(C)c4)c3c2)c1 (stereo not shown)	50 to 500	–	–
COc1ccccc1-c1n[nH]c2ncc(-c3cccc([C@@H]4OCO[C@H]4C(C)C)c3)cc12	< 50	–	–
COc1ccccc1-c1c[nH]c2ncc(-c3cccc(C(CC(=O)N(C)CCN(C)C)N4CCS(=O)(=O)CC4)c3)cc12 (stereo not shown)	> 500	–	–
CN(C)C(=O)C(O)c1cncc(-c2cnc3[nH]cc(-c4ccn(-c5ccccc5)n4)c3c2)c1 (stereo not shown)	50 to 500	–	–
COc1ccccc1-c1n[nH]c2ncc(-c3cccc(C(C(=O)N4CCC(O)C4)N(C)C)c3)cc12 (stereo not shown)	50 to 500	–	–
CN(C)C(=O)C(O)c1cncc(-c2cnc3[nH]cc(-c4ccc(C(F)(F)F)cc4)c3c2)c1 (stereo not shown)	50 to 500	–	–
CN(C)C(=O)C(O)c1cncc(-c2cnc3[nH]cc(-c4cccc(C#N)c4)c3c2)c1 (stereo not shown)	50 to 500	–	–
